Reference: PubChem BioAssay AID248 (DTP/NCI, 2004)
Inconclusive results and toxic doses are left out. Rule as the data show it: active = T/C of 150% or more; inactive = T/C below 125%.

System: L1210 leukemia ip in BDF1 mice, survival T/C
Experiment: NCI In Vivo Anticancer Drug Screen. Data for tumor model L1210 Leukemia (intraperitoneal) in B6D2F1 (BDF1) mice
Conditions: endpoint: mean survival time, higher = longer survival
Procedure, shortened: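 Antitumor effect is assessed in tumor-bearing animals. Survival in the compound arm is compared with a vehicle-dosed control arm and expressed as their quotient.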

[1] = dose: 100.0 mg/kg/injection, schedule: Q01DX009 (ip), vehicle: Klucel (hydroxypropylcellulose) (HPC)
[2] = dose: 100.0 mg/kg/injection, schedule: Q04DX002 (ip), vehicle: Klucel (hydroxypropylcellulose) (HPC)
[3] = dose: 200.0 mg/kg/injection, schedule: Q01DX009 (ip), vehicle: Klucel (hydroxypropylcellulose) (HPC)
[4] = dose: 200.0 mg/kg/injection, schedule: Q04DX002 (ip), vehicle: Klucel (hydroxypropylcellulose) (HPC)
[5] = dose: 400.0 mg/kg/injection, schedule: Q01DX009 (ip), vehicle: Klucel (hydroxypropylcellulose) (HPC)
[6] = dose: 400.0 mg/kg/injection, schedule: Q04DX002 (ip), vehicle: Klucel (hydroxypropylcellulose) (HPC)
[7] = dose: 100.0 mg/kg/injection, schedule: Q01DX009 (ip), vehicle: saline with Tween-80
[8] = dose: 200.0 mg/kg/injection, schedule: Q01DX009 (ip), vehicle: saline with Tween-80
[9] = dose: 400.0 mg/kg/injection, schedule: Q01DX009 (ip), vehicle: saline with Tween-80
[10] = dose: 100.0 mg/kg/injection, schedule: Q04DX003 (ip), vehicle: Klucel (hydroxypropylcellulose) (HPC)
[11] = dose: 200.0 mg/kg/injection, schedule: Q04DX003 (ip), vehicle: Klucel (hydroxypropylcellulose) (HPC)
[12] = dose: 400.0 mg/kg/injection, schedule: Q04DX003 (ip), vehicle: Klucel (hydroxypropylcellulose) (HPC)
[13] = dose: 100.0 mg/kg/injection, schedule: Q04DX003 (ip), vehicle: saline with Tween-80
[14] = dose: 200.0 mg/kg/injection, schedule: Q04DX003 (ip), vehicle: saline with Tween-80
[15] = dose: 400.0 mg/kg/injection, schedule: Q04DX003 (ip), vehicle: saline with Tween-80
[16] = dose: 100.0 mg/kg/injection, schedule: Q01DX001 (ip), vehicle: Klucel (hydroxypropylcellulose) (HPC)
[17] = dose: 200.0 mg/kg/injection, schedule: Q01DX001 (ip), vehicle: Klucel (hydroxypropylcellulose) (HPC)
[18] = dose: 400.0 mg/kg/injection, schedule: Q01DX001 (ip), vehicle: Klucel (hydroxypropylcellulose) (HPC)
[19] = dose: 100.0 mg/kg/injection, schedule: Q01DX001 (ip), vehicle: saline
[20] = dose: 200.0 mg/kg/injection, schedule: Q01DX001 (ip), vehicle: saline
[21] = dose: 50.0 mg/kg/injection, schedule: Q01DX001 (ip), vehicle: saline
[22] = dose: 400.0 mg/kg/injection, schedule: Q01DX001 (ip), vehicle: saline
[23] = dose: 100.0 mg/kg/injection, schedule: Q01DX001 (ip), vehicle: carboxymethylcellulose (CMC)
[24] = dose: 200.0 mg/kg/injection, schedule: Q01DX001 (ip), vehicle: carboxymethylcellulose (CMC)
[25] = dose: 400.0 mg/kg/injection, schedule: Q01DX001 (ip), vehicle: carboxymethylcellulose (CMC)
[26] = dose: 50.0 mg/kg/injection, schedule: Q01DX001 (ip), vehicle: carboxymethylcellulose (CMC)

Measured: T/C

O=C(Nc1ccc(NC(=O)c2ccccc2)c2c1C(=O)c1ccccc1C2=O)c1ccccc1
inactive: [1] 96 % of control | [2] 100 % of control | [3] 96 % of control | [4] 93 % of control | [5] 107 % of control | [6] 103 % of control

Cc1ccc(S(=O)(=O)NC(N)=NCCCC(NC(=O)OC(C)(C)C)C(=O)O)cc1 (centres undefined)
inactive: [7] 89 % of control | [8] 86 % of control | [9] 86 % of control

O=C(O)/C=C/C(=O)Nc1cc(Cl)cc2c1-c1c(Cl)cc(Cl)cc1C2O (centres undefined)
inactive: [10] 98 % of control | [11] 92 % of control | [12] 108 % of control

O=C1c2ccccc2C(C(C/C(=N/O)c2ccccc2)c2ccccc2)c2ccccc21 (centres undefined)
inactive: [13] 93 % of control | [14] 93 % of control | [15] 100 % of control

O=C(/C(=C1\SS/C(=C(/C(=O)c2ccccc2)c2ccccc2)S1)c1ccccc1)c1ccccc1
inactive: [16] 114 % of control | [10] 100 % of control | [17] 108 % of control | [11] 97 % of control | [18] 104 % of control | [12] 94 % of control

c1ccc2c(c1)c1c(n2N2CCCCC2)CCC1
inactive: dose: 100.0 mg/kg/injection, schedule: Q04DX002 (ip), vehicle: saline with Tween-80 90 % of control | dose: 200.0 mg/kg/injection, schedule: Q04DX002 (ip), vehicle: saline with Tween-80 95 % of control

Cc1cccc(NNC(=S)Nc2ccccc2)c1
inactive: [7] 97 % of control | [8] 97 % of control | [9] 94 % of control

COc1cc(/C=C/[N+](=O)[O-])c([N+](=O)[O-])cc1OC
inactive: dose: 50.0 mg/kg/injection, schedule: Q01DX009 (ip), vehicle: saline with Tween-80 90 % of control | [19] 106 % of control | [7] 87 % of control | [20] 101 % of control

NS(=O)(=O)c1cc(Br)c2c(c1)S(=O)(=O)NCN2
inactive: dose: 65.0 mg/kg/injection, schedule: Q01DX009 (ip), vehicle: Klucel (hydroxypropylcellulose) (HPC) 102 % of control | dose: 75.0 mg/kg/injection, schedule: Q01DX001 (ip), vehicle: saline 106 % of control | dose: 135.0 mg/kg/injection, schedule: Q01DX009 (ip), vehicle: Klucel (hydroxypropylcellulose) (HPC) 88 % of control | dose: 150.0 mg/kg/injection, schedule: Q01DX001 (ip), vehicle: saline 96 % of control | [3] 100 % of control | dose: 300.0 mg/kg/injection, schedule: Q01DX009 (ip), vehicle: Klucel (hydroxypropylcellulose) (HPC) 97 % of control | dose: 600.0 mg/kg/injection, schedule: Q01DX009 (ip), vehicle: Klucel (hydroxypropylcellulose) (HPC) 88 % of control

COC(=O)C1CN(Cc2ccccc2)C(=O)C1=O (centres undefined)
inactive: [21] 100 % of control | [19] 100 % of control | [20] 90 % of control | [22] 96 % of control

BrC1CC2CCCCC2CC1Br (centres undefined)
inactive: [23] 98 % of control | [24] 101 % of control | [25] 101 % of control

NC(=O)COc1ncc(Cl)cc1Cl
inactive: [2] 96 % of control | [4] 101 % of control | [6] 104 % of control

CN(C)C(=S)N1CC2C3CCC(O3)C2C1 (centres undefined)
inactive: [10] 95 % of control | [11] 104 % of control

CCCC(=O)Nc1cccc2ccccc12
inactive: [2] 117 % of control | [4] 107 % of control

CCc1ccc(NC(=S)Nc2ccccc2)cc1
inactive: dose: 100.0 mg/kg/injection, schedule: Q04DX002 (ip), vehicle: other 108 % of control | dose: 200.0 mg/kg/injection, schedule: Q04DX002 (ip), vehicle: other 90 % of control

CC(=O)[O][Ge]([CH2]CC(C)C)([CH2]CC(C)C)[CH2]CC(C)C
inactive: [26] 100 % of control | [21] 100 % of control | [23] 100 % of control | [19] 102 % of control | [24] 100 % of control | [20] 106 % of control | [25] 96 % of control | [22] 118 % of control

CC(=O)n1ncc2ccc(N)cc21
inactive: dose: 25.0 mg/kg/injection, schedule: Q01DX009 (ip), vehicle: water 89 % of control | dose: 50.0 mg/kg/injection, schedule: Q01DX009 (ip), vehicle: water 101 % of control | dose: 100.0 mg/kg/injection, schedule: Q01DX009 (ip), vehicle: water 96 % of control | dose: 100.0 mg/kg/injection, schedule: Q04DX003 (ip), vehicle: water 100 % of control | dose: 200.0 mg/kg/injection, schedule: Q04DX003 (ip), vehicle: water 96 % of control

Cc1c(NC(=O)Nc2cccc(F)c2)c(=O)n(-c2ccccc2)n1C
inactive: [7] 101 % of control | [13] 104 % of control | [8] 98 % of control | [14] 104 % of control | [9] 98 % of control | [15] 101 % of control

C/C(=N/N(C)C)c1ccc(F)cc1
inactive: dose: 6.25 mg/kg/injection, schedule: Q01DX009 (ip), vehicle: saline 94 % of control | dose: 12.5 mg/kg/injection, schedule: Q01DX009 (ip), vehicle: saline 98 % of control | dose: 25.0 mg/kg/injection, schedule: Q01DX009 (ip), vehicle: saline 106 % of control | dose: 50.0 mg/kg/injection, schedule: Q01DX009 (ip), vehicle: saline 101 % of control | dose: 100.0 mg/kg/injection, schedule: Q01DX009 (ip), vehicle: saline 94 % of control

CC(=O)N(C)c1cccc(C(=O)O)c1
inactive: [13] 98 % of control | [14] 94 % of control | [15] 98 % of control

Cn1nc(N)c2ncc(-c3ccccc3)nc21
inactive: [1] 92 % of control | dose: 100.0 mg/kg/injection, schedule: Q04DX003 (ip), vehicle: saline 103 % of control | [3] 95 % of control | dose: 200.0 mg/kg/injection, schedule: Q04DX003 (ip), vehicle: saline 107 % of control | [5] 98 % of control | dose: 400.0 mg/kg/injection, schedule: Q04DX003 (ip), vehicle: saline 98 % of control

CC1C(Br)C(=O)NC(=O)N1Cc1ccccc1 (centres undefined)
inactive: dose: 100.0 mg/kg/injection, schedule: Q01DX Z (ip), vehicle: methylcellulose (MC) 92 % of control | dose: 200.0 mg/kg/injection, schedule: Q01DX Z (ip), vehicle: methylcellulose (MC) 94 % of control

CCOC(=O)c1ccc(NC(=O)Oc2cc(C)c(Cl)c(C)c2)cc1
inactive: [1] 95 % of control | [3] 90 % of control | [5] 96 % of control

CC/C(=N/OC(=O)N(CC)CC)c1ccccc1
inactive: dose: 100.0 mg/kg/injection, schedule: Q01DX001 (ip), vehicle: other 96 % of control | dose: 200.0 mg/kg/injection, schedule: Q01DX001 (ip), vehicle: other 91 % of control | dose: 400.0 mg/kg/injection, schedule: Q01DX001 (ip), vehicle: other 93 % of control

COc1c(OC)c(C(C)C)c2c(OC(C)=O)c(C)c(-c3c(C)c(OC(C)=O)c4c(C(C)C)c(OC)c(OC)c5c4c3OC5=O)c3c2c1C(=O)O3
inactive: dose: 50.0 mg/kg/injection, schedule: Q01DX001 (ip), vehicle: Klucel (hydroxypropylcellulose) (HPC) 100 % of control | [16] 93 % of control | [17] 98 % of control

O=C(CCCOc1ccccc1)NCc1ccccc1[N+](=O)[O-]
inactive: [16] 92 % of control | [17] 96 % of control | [18] 102 % of control

NNc1ccccc1C(=O)O
inactive: [26] 94 % of control | [23] 94 % of control | [24] 105 % of control | [25] 94 % of control
